The text below walks through data of patent publication US20240285552A1 (priority 2020, published 2024).

The subject of series [1] is SARS-CoV-2 spike pseudotyped lentivirus. Briefly: microbe, parasite or virus in culture. The class given is cell-based. The note with it: for inhibition at 10 µM: Severe acute respiratory syndrome coronavirus 2, HEK293, 10 μM.
The target of series [2] is T1, rhACE2 and SARS-CoV-2 Spike (RBD) protein interaction (Homo sapiens, UniProt Q9BYF1).
T1 construct: purchased RayBiotech CoV-SACE2-1
T1 sequence (Q9BYF1 18-740): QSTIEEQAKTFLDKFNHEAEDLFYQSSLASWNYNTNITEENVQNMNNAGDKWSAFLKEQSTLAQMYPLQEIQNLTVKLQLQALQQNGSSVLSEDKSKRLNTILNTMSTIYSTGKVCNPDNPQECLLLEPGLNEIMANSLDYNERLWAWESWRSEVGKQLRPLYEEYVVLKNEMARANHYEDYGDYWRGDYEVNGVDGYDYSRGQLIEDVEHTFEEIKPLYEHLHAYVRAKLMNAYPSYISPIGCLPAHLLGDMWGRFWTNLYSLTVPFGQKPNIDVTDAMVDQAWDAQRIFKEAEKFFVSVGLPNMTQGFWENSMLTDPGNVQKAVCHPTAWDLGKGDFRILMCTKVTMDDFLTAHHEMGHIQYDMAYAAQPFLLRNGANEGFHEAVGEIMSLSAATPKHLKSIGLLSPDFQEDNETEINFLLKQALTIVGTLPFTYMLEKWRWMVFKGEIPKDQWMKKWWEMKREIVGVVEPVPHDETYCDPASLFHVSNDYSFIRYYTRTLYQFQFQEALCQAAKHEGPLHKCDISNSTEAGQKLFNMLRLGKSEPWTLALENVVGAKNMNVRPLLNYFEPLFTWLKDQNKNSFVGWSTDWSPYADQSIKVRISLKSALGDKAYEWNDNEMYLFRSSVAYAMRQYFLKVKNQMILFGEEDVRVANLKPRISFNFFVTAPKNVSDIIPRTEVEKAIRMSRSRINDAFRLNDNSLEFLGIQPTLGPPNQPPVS
The series is described as follows: Spike (RBD)-ACE2 binding assay (ELISA). The note with it: for effect on Spike (RBD)-rhACE2 interaction: 100 μM to 100 nM, hydrochloride; for IC50: bell-shaped model, AMB, BHH. Set-up: species or system human; SARS-CoV-2.

The test system of series [3] is SARS CoV-2 nanoluciferase reporter virus. The series is described as follows: microbe, parasite or virus in culture. The class given is cell-based. The note with it: for IC50: read-out: IC50, viral replication, Nanoluciferase Reporter Virus Assay.
The nature of series [4]: in vitro. The note with it: African green monkey.
A short description of series [5]: in vitro. The note with it: human, Cytotoxicity CC50, A549 cells, 72 hours.
Where [6] appears, read: Severe acute respiratory syndrome coronavirus 2, 50 μM, Table 3, read-out: Percent Inhibition of fusion of SARS-CoV-2 spike pseudotyped lentivirus with HEK293-ACE2 cells.
The mark [7] stands for this setting: Severe acute respiratory syndrome coronavirus 2, 100 μM, Table 3, read-out: Percent Inhibition of fusion of SARS-CoV-2 spike pseudotyped lentivirus with HEK293-ACE2 cells.
The mark [8] stands for this setting: Table 2, read-out: Percent (%) Inhibition of Pseudo virus Entry in HEK293 Kidney Cells, SARS-COV-2.
Setting [9] is: Severe acute respiratory syndrome coronavirus 2, HEK293, 100 μM, Table 2, read-out: Percent (%) Inhibition of Pseudo virus Entry in HEK293 Kidney Cells, SARS-COV-2.
The mark [10] stands for this setting: highest tested 100 μM, read-out: Estimated Relative IC50 against rhACE2 and RBD Interaction Assay, IC50_2.
Setting [11] is: read-out: Estimated Relative IC50 against rhACE2 and RBD Interaction Assay, IC50_1.
The mark [12] stands for this setting: 50% cytotoxic concentration (CC50), Vero E6, 72 hours, Examples A and B, highest concentration 30 μM.
The mark [13] stands for this setting: Cytotoxicity CC50, Vero E6, 72 hours, Example C (Table 4).

Where “and” joins values, the source holds several entries; their conditions need not be identical. Equal values may be shown once. Entries after “also recorded” stand apart in the source; their conditions may differ. Where a name gives a salt, the structure may show the parent alone. Read-outs that look alike come from different tables or passages of the source.

Turning to `Nc1c(Br)cc(Br)cc1CN[C@H]1CC[C@H](O)CC1` [AMB, 4-[(2-amino-3,5-dibromophenyl)methylamino]cyclohexan-1-ol; hydrochloride], the “Percent Inhibition of fusion of SARS-CoV-2 spike pseudotyped lentivirus with HEK293-ACE2 cells” value in series [1] (10 μM, Table 3, hydrochloride) is 86% and 55%; in series [1] (25 μM, Table 3, hydrochloride) it was 64%; in series [1] (50 μM, Table 3, hydrochloride), 59%; in series [1] (100 μM, Table 3, hydrochloride), 47%. Further, the “Percent (%) Inhibition of Pseudo virus Entry in HEK293 Kidney Cells, SARS-COV-2” value in series [1] (50 μM, Table 2, hydrochloride) came out at 46%. Also, the inhibition at 25 µM was determined as 78% in series [1] (Severe acute respiratory syndrome coronavirus 2, 25 μM, Table 3, read-out: Percent Inhibition of fusion of SARS-CoV-2 spike pseudotyped lentivirus with HEK293-ACE2 cells) and 12% in series [1] (Severe acute respiratory syndrome coronavirus 2, HEK293, 25 μM, Table 2, read-out: Percent (%) Inhibition of Pseudo virus Entry in HEK293 Kidney Cells, SARS-COV-2). Also, the inhibition at 50 µM in series [1] (setting [6]) was 72%; in series [1] (Severe acute respiratory syndrome coronavirus 2, HEK293, 50 μM, Table 2, read-out: Percent (%) Inhibition of Pseudo virus Entry in HEK293 Kidney Cells, SARS-COV-2), about 50%. Also, the inhibition at 100 µM in series [1] (setting [7]) is 41%; in series [1] (setting [9]) it was 89%. Further, the inhibition at 10 µM in series [1] (setting [8]) was 2%. Also, the “effect on Spike (RBD)-rhACE2 interaction” value in series [2] was “did not produce a stimulation or enhancement of binding; also recorded: more potent at disrupting the interaction between ACE2 and RBD than BHH”. Besides, the IC50 in series [2] (setting [10]) is 232 µM; in series [2] (setting [11]), 0.82 µM; in series [3] (Severe acute respiratory syndrome coronavirus 2, A549, 72 h), 47 µM; in series [3] (hydrochloride), 47.3 µM. The “Concentration at Maximum % Inhibition” value in series [3] (A549-ACE2, NLRV) came to 300 µM. For the same molecule, in series [3] (A549-ACE2, NLRV), the “Maximum Inhibition” value worked out at 99.73%. Also, in the series with A549 cells, the “Conc. at Max. % Viability” value amounted to 2.34 µM. In the series with A549 cells, the “Conc. at Min. % Viability” value turned out to be 300 µM. In addition, the “Max. Viability” value in the series with A549 cells is 100%. In the series with A549 cells, the “Min. Viability” value was 0.14%. Further, the half-maximal cytotoxic concentration (CC50) with A549 cells (read-out: Cytotoxicity CC50, 72 hours, hydrochloride) was 137 µM. In addition, the CC50 at 72 h in the series “in vitro [4]” (setting [12]) is over 30 µM; in the series “in vitro [4]” (setting [13]), 184 µM; in “in vitro [5]”, 137 µM.

`CN(Cc1cc(Br)cc(Br)c1N)C1CCCCC1` [BHH, Bromhexine hydrochloride]: the “Percent Inhibition of fusion of SARS-CoV-2 spike pseudotyped lentivirus with HEK293-ACE2 cells” value in series [1] (50 μM, Table 3, hydrochloride) came out at 61%; in series [1] (100 μM, Table 3, hydrochloride) it was 76%. Besides, in series [1] (setting [6]), the inhibition at 50 µM stood at 57%. Also, the inhibition at 100 µM in series [1] (setting [7]) is 73%; in series [1] (setting [9]), at most 100%. The inhibition at 10 µM in series [1] (setting [8]) turned out to be 50%. Moreover, the “effect on Spike (RBD)-rhACE2 interaction” value in series [2] was “enhanced the interaction at higher concentrations; also recorded: increased the binding of ACE2 and RBD at high concentrations of 100 and 50 μM but blocked the interaction at low concentrations”. For the same molecule, the concentration for half-maximal inhibition (IC50) in series [2] (setting [10]) is 42.9 µM; in series [2] (setting [11]) it was 1.19 µM. The CC50 at 72 h in “in vitro [4]” (setting [12]) is over 30 µM; in the series “in vitro [4]” (setting [13]) it was 58.3 µM.
